Experimental findings from patent US12599672B2, “KRAS proteolysis targeting chimeras” (PAQ Therapeutics Inc., priority 2023, dated 2026) are described below.

Assay type in all cases: cell-based
One experiment deals with T1, KRAS G12D (Homo sapiens, UniProt P01116, G12D).
T1 construct: AsPc-1-KRAS (G12D)-HiBit-KI cell (Pharmaron); host or cells: AsPc-1-KRAS (G12D)-HiBit-KI cells (HiBiT knock-in at the endogenous KRAS locus)
Put plainly: KRAS G12D HiBit assay. The note with it: AsPc-1-KRAS (G12D)-HiBit-KI cell, compound treatment for 24 hours; for DC50: absolute DC50. In short, it runs like this:
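HiBiT luminescence, detected by adding lytic buffer, substrate and LgBiT protein, served as the KRAS G12D read-out. Compounds, serially diluted 3-fold over 10 points from 0.3 mM DMSO stock, were on cells for 24 h; percent inhibition normalized to cells given 0.1% DMSO only.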
(In general: HiBiT is a short tag that completes a luciferase, so light tracks the accessible tagged protein.)

The next experiment concerns the target T2, KRAS G12V (Homo sapiens, UniProt P01116, G12V).
T2 construct: SW620-KRAS (G12V)-HiBit-KI cell (Pharmaron); host or cells: SW620-KRAS (G12V)-HiBit-KI cells (HiBiT knock-in at the endogenous KRAS locus)
Description: KRAS G12V HiBit assay. The note with it: SW620-KRAS (G12V)-HiBit-KI cells, compound treatment for 24 hours, class symbols. In short, it runs like this:
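Luminescence from lytic Nano-Glo HiBiT detection with LgBiT read KRAS G12V levels after 24 h compound exposure. Dilutions were 10-point, 3-fold, from a 0.3 mM DMSO stock. Degradation activity was normalised to cells given 0.1% DMSO alone.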

The next experiment concerns the target T3, KRAS (Homo sapiens, UniProt P01116).
T3 construct: endogenous in cells; host or cells: KE39 (KRAS amplified) cells
Description: KRASamp MSD assay. The settings on record: KE39 (KRAS amplified) cells, treated with test compounds for 24 hr, MSD readout of KRAS degradation. In short, it runs like this: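 Degradation DC50 derived by curve fitting, with KRAS levels quantified by MSD electrochemiluminescence (capture/detection antibodies, recombinant WT KRAS standard). Lysates prepared from KE39 cells (KRAS amplified) exposed to test compounds for 24 hr.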

The mark [1] stands for this setting: numeric bounds given in place of class symbols.

Where only a bound is given, the exact number is not on record here.

T3 sequence (P01116 1-188 isoform P01116-2): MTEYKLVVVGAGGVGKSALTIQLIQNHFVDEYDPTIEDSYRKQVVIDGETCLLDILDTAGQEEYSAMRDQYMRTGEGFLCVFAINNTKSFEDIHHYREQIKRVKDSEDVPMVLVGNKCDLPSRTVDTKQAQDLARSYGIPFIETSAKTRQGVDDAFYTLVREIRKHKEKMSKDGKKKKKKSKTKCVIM
T2 sequence (P01116 1-188 isoform P01116-2 G12V): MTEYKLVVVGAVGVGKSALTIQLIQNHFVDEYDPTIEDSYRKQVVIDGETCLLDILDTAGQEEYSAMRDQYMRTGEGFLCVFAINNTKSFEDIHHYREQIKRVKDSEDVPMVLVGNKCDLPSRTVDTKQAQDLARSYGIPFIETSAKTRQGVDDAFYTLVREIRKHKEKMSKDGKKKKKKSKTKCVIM
T1 sequence (P01116 1-188 isoform P01116-2 G12D): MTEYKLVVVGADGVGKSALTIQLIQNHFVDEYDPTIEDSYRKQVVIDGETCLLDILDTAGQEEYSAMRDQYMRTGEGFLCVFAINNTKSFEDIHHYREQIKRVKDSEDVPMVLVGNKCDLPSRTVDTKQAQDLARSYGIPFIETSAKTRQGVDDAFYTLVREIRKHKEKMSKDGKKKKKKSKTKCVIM

Consider `CCc1c(F)ccc2cc(O)cc(-c3ncc4c(N5CCC[C@@](C)(O)C5)nc(OC[C@]56CCCN5[C@H](COC(=O)N5CCC(CN7CCC(c8ccc9c(c8)n(C)c(=O)n9C8CCC(=O)NC8=O)CC7)CC5)CC6)nc4c3F)c12` (stereo partly drawn) [Compound 390, ((3S,7aR)-7a-(((7-(8-ethyl-7-fluoro-3-hydroxynaphthalen-1-yl)-8-fluoro-4-((R)-3-hydroxy-3-methylpiperidin-1-yl)pyrido[4,3-d]pyrimidin-2-yl)oxy)methyl)hexahydro-1H-pyrrolizin-3-yl)methyl 4-((4-(1-(2,6-dioxopiperidin-3-yl)-3-methyl-2-oxo-2,3-dihydro-1H-benzo[d]imidazol-5-yl)piperidin-1-yl)methyl)piperidine-1-carboxylate], for which the DC50 on KRAS G12D (class symbols) is < 0.1 µM; at KRAS G12V, < 0.01 µM; at KRAS, 0.001 to 0.01 µM.

For `CCc1c(F)ccc2cc(O)cc(-c3ncc4c(N5CCC[C@@](C)(O)C5)nc(OC[C@@]56CCCN5[C@H](COC(=O)N5CCC(CN7CCC(c8ccc9c(c8)n(C)c(=O)n9C8CCC(=O)NC8=O)C(F)(F)C7)CC5)CC6)nc4c3F)c12` (stereo partly drawn) [Compound 398, ((3S,7aS)-7a-(((7-(8-ethyl-7-fluoro-3-hydroxynaphthalen-1-yl)-8-fluoro-4-((R)-3-hydroxy-3-methylpiperidin-1-yl)pyrido[4,3-d]pyrimidin-2-yl)oxy)methyl)hexahydro-1H-pyrrolizin-3-yl)methyl 4-((4-(1-(2,6-dioxopiperidin-3-yl)-3-methyl-2-oxo-2,3-dihydro-1H-benzo[d]imidazol-5-yl)-3,3-difluoropiperidin-1-yl)methyl)piperidine-1-carboxylate], the DC50 at KRAS G12D (class symbols) was < 0.1 µM; on KRAS G12V, < 0.01 µM; at KRAS, < 0.001 µM.

With `CCc1c(F)ccc2cc(O)cc(-c3ncc4c(N5CCC[C@](C)(O)C5)nc(OC[C@]56CCCN5[C@@H](COC(=O)N5CC7CCC(C5)C7CN5CCC(c7ccc8c(c7)n(C)c(=O)n8C7CCC(=O)NC7=O)CC5)CC6)nc4c3F)c12` (stereo partly drawn) [Compound 391, ((3R,7aR)-7a-(((7-(8-ethyl-7-fluoro-3-hydroxynaphthalen-1-yl)-8-fluoro-4-((S)-3-hydroxy-3-methylpiperidin-1-yl)pyrido[4,3-d]pyrimidin-2-yl)oxy)methyl)hexahydro-1H-pyrrolizin-3-yl)methyl 8-((4-(1-(2,6-dioxopiperidin-3-yl)-3-methyl-2-oxo-2,3-dihydro-1H-benzo[d]imidazol-5-yl)piperidin-1-yl)methyl)-3-azabicyclo[3.2.1]octane-3-carboxylate], the DC50 on KRAS G12D (class symbols) was < 0.1 µM; on KRAS G12V it was < 0.01 µM; on KRAS, < 0.001 µM.

As to `CCc1c(F)ccc2cc(O)cc(-c3ncc4c(N5CCC[C@@](C)(O)C5)nc(OC[C@]56CCCN5[C@H](COC(=O)NC5CCCN(c7ccc8c(c7)n(C)c(=O)n8C7CCC(=O)NC7=O)C5)CC6)nc4c3F)c12` (stereo partly drawn) [Compound 309, ((3S,7aR)-7a-(((7-(8-ethyl-7-fluoro-3-hydroxynaphthalen-1-yl)-8-fluoro-4-((R)-3-hydroxy-3-methylpiperidin-1-yl)pyrido[4,3-d]pyrimidin-2-yl)oxy)methyl)hexahydro-1H-pyrrolizin-3-yl)methyl (1-(1-(2,6-dioxopiperidin-3-yl)-3-methyl-2-oxo-2,3-dihydro-1H-benzo[d]imidazol-5-yl)piperidin-3-yl)carbamate], the DC50 on KRAS G12D (setting [1]) is > 0.1 µM; at KRAS G12V, 0.01 to 0.1 µM; on KRAS, 0.001 to 0.01 µM.

Take `CCc1c(F)ccc2cc(O)cc(-c3ncc4c(N5CCC[C@@](C)(O)C5)nc(OC[C@]56CCCN5[C@@H](COC(=O)N5CCC(CN7CCC(c8ccc9c(c8)n(C)c(=O)n9C8CCC(=O)NC8=O)CC7)CC5)CC6)nc4c3F)c12` (stereo partly drawn) [Compound 120, ((3R,7aR)-7a-(((7-(8-Ethyl-7-fluoro-3-hydroxynaphthalen-1-yl)-8-fluoro-4-((R)-3-hydroxyl-3-methylpiperidin-1-yl)pyrido[4,3-d]pyrimidin-2-yl)oxy)methyl)hexahydro-1H-pyrrolizin-3-yl)methyl4-((4-(1-(2,6-dioxopiperidin-3-yl)-3-methyl-2-oxo-2,3-dihydro-1H-benzo[d]imidazol-5-yl)piperidin-1-yl)methyl) piperidine-1-carboxylate]: the DC50 on KRAS G12D (class symbols) is < 0.1 µM; at KRAS G12V, < 0.01 µM; on KRAS it was < 0.001 µM.

Regarding `CCc1c(F)ccc2cc(O)cc(-c3ncc4c(N5CCC[C@@](C)(O)C5)nc(OC[C@]56CCCN5[C@H](CCCN5CCC(c7ccc8c(c7)n(C)c(=O)n8C7CCC(=O)NC7=O)CC5)CC6)nc4c3F)c12` (stereo partly drawn) [Compound 473, 3-(5-(1-(3-((3R,7aR)-7a-(((7-(8-Ethyl-7-fluoro-3-hydroxynaphthalen-1-yl)-8-fluoro-4-((R)-3-hydroxy-3-methylpiperidin-1-yl)pyrido[4,3-d]pyrimidin-2-yl)oxy)methyl)hexahydro-1H-pyrrolizin-3-yl)propyl)piperidin-4-yl)-3-methyl-2-oxo-2,3-dihydro-1H-benzo[d]imidazol-1-yl) piperidine-2,6-dione], the results for the DC50 on KRAS G12D (class symbols), on KRAS G12V and at KRAS were < 0.1 µM, 0.01 to 0.1 µM and 0.001 to 0.01 µM, respectively.

For the compound `CCc1c(F)ccc2cc(O)cc(-c3ncc4c(N5CCC[C@@](C)(O)C5)nc(OC[C@@]56CCCN5[C@H](COC(=O)N5CCC(C#CC7CCN(c8ccc9c(c8)n(C)c(=O)n9C8CCC(=O)NC8=O)CC7)CC5)CC6)nc4c3F)c12` (stereo partly drawn) [Compound 500, [(3S,7aS)-7a-({[7-(8-ethyl-7-fluoro-3-hydroxynaphthalen-1-yl)-8-fluoro-4-[(3R)-3-hydroxy-3-methylpiperidin-1-yl]pyrido[4,3-d]pyrimidin-2-yl]oxy}methyl)-hexahydropyrrolizin-3-yl]methyl 4-(2-{1-[1-(2,6-dioxopiperidin-3-yl)-3-methyl-2-oxo-1,3-benzodiazol-5-yl]piperidin-4-yl}ethynyl) piperidine-1-carboxylate], the figures for the DC50 on KRAS G12D (class symbols), at KRAS G12V and on KRAS were < 0.1 µM, < 0.01 µM and < 0.001 µM, respectively.

With `C#Cc1c(F)ccc2cc(O)cc(-c3ncc4c(N5CCOCC5)nc(OC[C@@]56CCCN5[C@H](COC(=O)N5CCC(CN7CCC(c8ccc9c(c8)n(C)c(=O)n9C8CCC(=O)NC8=O)CC7)CC5)CC6)nc4c3F)c12` (stereo partly drawn) [Compound 125, ((3S,7aS)-7A-(((7-(8-Ethynyl-7-fluoro-3-hydroxynaphthalen-1-yl)-8-fluoro-4-morpholinopyrido[4,3-d]pyrimidin-2-yl)oxy)methyl)hexahydro-1H-pyrrolizin-3-yl)methyl 4-((4-(1-(2,6-dioxopiperidin-3-yl)-3-methyl-2-oxo-2,3-dihydro-1H-benzo[d]imidazol-5-yl)piperidin-1-yl)methyl) piperidine-1-carboxylate], the DC50 is < 0.1 µM at KRAS G12D (class symbols), < 0.01 µM on KRAS G12V and < 0.001 µM at KRAS. Further, at KRAS G12D (class symbols), the Dmax is > 50%.

On to `CCc1c(F)ccc2cc(O)cc(-c3ncc4c(N5CCCC5)nc(OC[C@@]56CCCN5[C@H](COC(=O)N5CCC7(CC5)CC(N5CCC(c8ccc9c(c8)n(C)c(=O)n9C8CCC(=O)NC8=O)CC5)C7)CC6)nc4c3F)c12` (stereo partly drawn) [Compound 348, ((3S,7aS)-7a-(((7-(8-ethyl-7-fluoro-3-hydroxynaphthalen-1-yl)-8-fluoro-4-(pyrrolidin-1-yl)pyrido[4,3-d]pyrimidin-2-yl)oxy)methyl)hexahydro-1H-pyrrolizin-3-yl)methyl 2-(4-(1-(2,6-dioxopiperidin-3-yl)-3-methyl-2-oxo-2,3-dihydro-1H-benzo[d]imidazol-5-yl)piperidin-1-yl)-7-azaspiro[3.5]nonane-7-carboxylate], for which the DC50 at KRAS G12D (setting [1]) was > 0.1 µM; at KRAS G12V, > 0.1 µM; on KRAS, ≥ 0.01 µM.

With `C#Cc1c(F)ccc2cc(O)cc(-c3ncc4c(N5CCC[C@@](C)(O)C5)nc(OCC5(CN6CCC7(CC6)CCN(c6cccc8c6n(C)c(=O)n8C6CCC(=O)NC6=O)CC7)CC5)nc4c3F)c12` (stereo partly shown) [Compound 67], the DC50 on KRAS G12D (class symbols) was < 0.1 µM; on KRAS G12V it was < 0.01 µM; at KRAS it was 0.001 to 0.01 µM.

As to `CCc1c(F)ccc2cc(O)cc(-c3ncc4c(N5CCC[C@@](C)(O)C5)nc(OC[C@@]56CCCN5[C@H](COC(=O)N5CCC(CN7CCC(Cc8ccc9c(c8)n(C)c(=O)n9C8CCC(=O)NC8=O)CC7)CC5)CC6)nc4c3F)c12` (stereo partly drawn) [Compound 429, ((3S,7aS)-7a-(((7-(8-ethyl-7-fluoro-3-hydroxynaphthalen-1-yl)-8-fluoro-4-((R)-3-hydroxy-3-methylpiperidin-1-yl)pyrido[4,3-d]pyrimidin-2-yl)oxy)methyl)hexahydro-1H-pyrrolizin-3-yl)methyl 4-((4-((1-(2,6-dioxopiperidin-3-yl)-3-methyl-2-oxo-2,3-dihydro-1H-benzo[d]imidazol-5-yl)methyl)piperidin-1-yl)methyl)piperidine-1-carboxylate], the results for the DC50 on KRAS G12D (class symbols), on KRAS G12V and on KRAS were < 0.1 µM, < 0.01 µM and < 0.001 µM, respectively.
